# Experimental data published in patent publication US20160067246A1, “USE OF PHOSPHODIESTERASE 5A INHIBITORS FOR THE TREATMENT OF MUSCULAR DYSTROPHY” (CEDARS-SINAI MEDICAL CENTER, priority 2013, published 2016).
# Columns and labels:
# Format in all cases: in vivo, human
# [1] = tested on: boys with Duchenne muscular dystrophy (DMD); assay: Functional sympatholysis (LBNP, NIR spectroscopy, rest vs handgrip) with PDE5 inhibition in DMD; settings: for effect of chronic background medication on functional sympatholysis / functional ischemia in DMD: boys with DMD on chronic glucocorticoid or prophylactic cardiac treatment; for LBNP-induced ΔHbO2+MbO2 (% TLS) at rest / LBNP-induced ΔHbO2+MbO2 (% TLS) during handgrip: DMD, analysis using all 12 boys
# Procedure: Forearm muscle oxygenation was measured with near-infrared (NIR) spectroscopy, as previously described.^4B Briefly, optodes were placed over the belly of the flexor digitorum profundus, the main muscle recruited during handgrip. The optodes were housed in a customized flexible rubber casing, ensuring a fixed and invariant position of the optodes relative to each other, and was secured to the skin with adhesive. The optodes were covered with an optically dense, black vinyl sheet, to minimize interference from external light or loss of NIR transmitted light. The forearm was wrapped with an elastic bandage to minimize movement of the optodes.
# Before each experiment, absorption and scattering coefficients were calibrated against an external standard. After each experiment, a cuff was inflated on the upper arm to supra-systolic pressure of 200 mmHg to establish the total labile signal (TLS, the difference between the baseline and nadir in muscle tissue oxygenation). Changes in forearm tissue oxygenation were expressed as a percentage of TLS.
# Handgrip exercise was performed with a dynamometer (Smedley Hand Dynamometer modified by Stoelting). To determine maximal voluntary contraction (MVC), each subject was asked to grip the dynamometer as hard as possible. […] Subjects performed intermittent isometric handgrip (20 handgrips per minute, 50% duty cycle) at 20% MVC for 7 minutes.
# The subjects lower body was enclosed in a negative pressure chamber to the level of the iliac crest as previously described.^9B The pressure of the chamber was measured by a Statham transducer (Gould Inc.). Lower body negative pressure (LBNP) at −20 mmHg simulates mild orthostatic stress (that is, transition from the supine to the seated position). This technique mainly unloads the cardiopulmonary baroreceptors, producing highly reproducible reflex increases in sympathetic vasoconstrictor drive to the skeletal muscle vasculature without changing systemic blood pressure.^9B
# The subjects' lower body was enclosed in a negative pressure chamber to the level of the iliac crest as previously described. The pressure in the chamber was measured by a Statham transducer (Gould Inc.). Lower body negative pressure (LBNP) at −20 to −30 mmHg simulates mild orthostatic stress caused by transition from the supine to the seated position. This technique mainly unloads the low-pressure cardiopulmonary baroreceptors, producing highly reproducible reflex increases in sympathetic vasoconstrictor drive to the skeletal muscle vasculature without changing systemic blood pressure. To measure exercise-induced attenuation of reflex vasoconstriction (i.e., functional sympatholysis), the LBNP was (i) applied at rest, and then (ii) superimposed on mild rhythmic handgrip at 20% MVC. Reflex vasoconstriction was measured as the LBNP-induced decrease in forearm muscle oxygenation by NIR spectroscopy. Using the pressure inside the LBNP chamber as a trigger, the Powerlab software was programed to mean the HbO2+MbO2 signal for 20 seconds before the onset of LBNP and for 20 seconds before the offset of LBNP; the difference between these mean values was taken as the LBNP-induced change in forearm muscle tissue oxygenation (20). Blood pressure, heart rate, and handgrip force were also recorded in response to 2 minutes of LBNP applied at rest and during the third to fifth minutes of the 7-minute exercise protocol.
# Patients received 0.5 mg/kg of oral sildenafil or tadalafil on day 1, followed by 1.0 mg/kg of sildenafil or tadalafil on day 2. Patients then crossed over 2 weeks later for the opposite drug. Experiments were performed 1 hour (sildenafil) or 3 hours (tadalafil) after oral treatment to match the experiment with the peak blood level. Patients were queried about potential side-effects throughout the study visit. […]
# [2] = tested on: boys with Duchenne muscular dystrophy (DMD); assay: Exercise-induced hyperemia: brachial artery blood flow by Doppler ultrasound and hemodynamics, rest and post handgrip; design: key to BA velocity: mean blood velocity in cm/s; Heart rate: unit not given here
# Procedure: Subjects were studied in the supine position. Heart rate was measured continuously by electrocardiography, and blood pressure measured by automated oscillometric sphygomanometry using a child's cuff ([…] Monitor 300 Series). Brachial artery mean blood velocity (MBV) was measured from the exercising arm using pulsed-Doppler ultrasonography (Siemens iE33). Data were acquired continuously with a 9-MHz probe with a 60° angle of insonation, placed on the skin surface distal to the axilla. The ultrasound gate was optimized to ensure complete insonation of the entire vessel cross-section with constant intensity. The Doppler audio signal was converted to a real-time flow velocity signal using a validated Doppler audio converter,^8B and recorded using a PowerLab data acquisition system (ADInstruments, CO). Brachial artery diameter was measured by B-mode imaging in triplicate at rest. […] Brachial artery blood flow was calculated as MBV (cm/s)·πr^2·60, where r is radius of the brachial artery. […] exercise was performed with a dynamometer ([…] Dynamometer modified by Stoelting). To determine maximal voluntary contraction (MVC), each subject was asked to grip the dynamometer as hard as possible. […] Vascular conductance was calculated as forearm blood flow divided by mean arterial pressure. […] Patients then crossed over 2 weeks later for the opposite drug. […] Patients were queried about potential side-effects throughout the study visit. Baseline characteristics of patients and controls were compared using Student's t test. Exercise-induced attenuation of reflex vasoconstriction (functional sympatholysis) was assessed by comparing the LBNP-induced AHbO2+MbO2 (% TLS) at rest versus the LBNP-induced decrease in ΔHbO2+MbO2 during handgrip. Group differences in ΔHbO2+MbO2 were assessed using a Student's t test. The drug treatment effect on LBNP-induced Δ·HbO2+MbO2 (% TLS) at rest versus the LBNP-induced decrease in ΔHbO2+MbO2 during handgrip was compared to baseline for each patient using a Student's t test. The group difference in the % Δ in brachial artery blood flow was assessed using a student's t test. The drug treatment effect on the % Δ in brachial artery blood flow was compared using a student's t test. All analyses were performed in SigmaPlot. Data are expressed as mean±SEM, unless otherwise specified.
# [3] = Pharmacokinetic study and drug blood levels in boys with DMD; settings: male, human, in vivo
# Procedure: Serum blood samples for pharmacokinetic determinations were collected from patients at time 0-hr, 0.25-hr, 0.5-hr, 1-hr, 2-hr, 4-hr, 8-hr, and 24-hr following each treatment (sildenafil and tadalafil) and each dose (0.5 vs. 1.0 mg/kg). Blood levels were measured with high-performance liquid chromatography-tandem mass spectrometry (NMS Labs).
# Patients received 0.5 mg/kg of oral sildenafil or tadalafil on day 1, followed by 1.0 mg/kg of sildenafil or tadalafil on day 2. Patients then crossed over 2 weeks later for the opposite drug. Experiments were performed 1 hour (sildenafil) or 3 hours (tadalafil) after oral treatment to match the experiment with the peak blood level. Patients were queried about potential side-effects throughout the study visit.
compound,measurement,setting,value
CC(=O)OCC(=O)[C@@]12N=C(C)O[C@@H]1C[C@H]1[C@@H]3CCC4=CC(=O)C=C[C@]4(C)[C@H]3[C@@H](O)C[C@@]12C [deflazacort],effect of chronic background medication on functional sympatholysis / functional ischemia in DMD,[1],neither prednisone nor deflazacort protects dystrophic muscle from functional ischemia
C[C@]12C=CC(=O)C=C1CC[C@@H]1[C@@H]2C(=O)C[C@@]2(C)[C@H]1CC[C@]2(O)C(=O)CO [prednisone],effect of chronic background medication on functional sympatholysis / functional ischemia in DMD,[1],neither prednisone nor deflazacort protects dystrophic muscle from functional ischemia
CCCc1nn(C)c2c(=O)[nH]c(-c3cc(S(=O)(=O)N4CCN(C)CC4)ccc3OCC)nc12 [sildenafil],BA VC (vascular conductance),"[2]; 0.5 mg/kg, Post-exercise",2.3 ± 0.3 ml/min/mmHg
same,BA blood flow,"[2]; 0.5 mg/kg, Post-exercise",172 ± 18 mL/min
same,BA velocity,"[2]; 0.5 mg/kg, Post-exercise",32 ± 3
same,Heart rate,"[2]; 0.5 mg/kg, Post-exercise",88 ± 6
same,MAP,"[2]; 0.5 mg/kg, Post-exercise",75 ± 2 mmHg
same,BA VC (vascular conductance),"[2]; 0.5 mg/kg, Rest",1.7 ± 0.3 ml/min/mmHg
same,BA blood flow,"[2]; 0.5 mg/kg, Rest",125 ± 19 mL/min
same,BA velocity,"[2]; 0.5 mg/kg, Rest",24 ± 4
same,Heart rate,"[2]; 0.5 mg/kg, Rest",84 ± 5
same,MAP,"[2]; 0.5 mg/kg, Rest",77 ± 6 mmHg
same,BA VC (vascular conductance),"[2]; 1.0 mg/kg, Post-exercise",2.7 ± 0.3 ml/min/mmHg
same,BA blood flow,"[2]; 1.0 mg/kg, Post-exercise",196 ± 22 mL/min
same,BA velocity,"[2]; 1.0 mg/kg, Post-exercise",37 ± 3
same,Heart rate,"[2]; 1.0 mg/kg, Post-exercise",93 ± 5
same,MAP,"[2]; 1.0 mg/kg, Post-exercise",74 ± 2 mmHg
same,BA VC (vascular conductance),"[2]; 1.0 mg/kg, Rest",1.9 ± 0.3 ml/min/mmHg
same,BA blood flow,"[2]; 1.0 mg/kg, Rest",137 ± 21 mL/min
same,BA velocity,"[2]; 1.0 mg/kg, Rest",27 ± 5
same,Heart rate,"[2]; 1.0 mg/kg, Rest",92 ± 5
same,MAP,"[2]; 1.0 mg/kg, Rest",74 ± 2 mmHg
same,restoration of functional sympatholysis in DMD (in words),"[1]; 6 patients with DMD, 0.5 and 1.0 mg/kg",equally restores functional sympatholysis
same,LBNP-induced ΔHbO2+MbO2 (% TLS) at rest,[1]; 0.5 mg/kg oral,−18±4%
same,LBNP-induced ΔHbO2+MbO2 (% TLS) during handgrip,[1]; 0.5 mg/kg oral,−10±3%
same,LBNP-induced ΔHbO2+MbO2 (% TLS) at rest,[1]; 1.0 mg/kg oral,−20±3%
same,LBNP-induced ΔHbO2+MbO2 (% TLS) during handgrip,[1]; 1.0 mg/kg oral,−1±3%
same,half-life,[3]; 0.5 mg/kg,2.4 ± 0.09 h
same,half-life,[3]; 1 mg/kg,3.2 ± 0.5 h
same,time after ingestion at which blood level had returned close to baseline,[3]; po,4 h
same,peak blood level,"[3]; po, 0.5 mg/kg",82.5 ± 26.6 ng/mL
same,peak blood level,"[3]; po, 1 mg/kg",167.5 ± 34.1 ng/mL
NCCCC[C@H](N[C@@H](CCc1ccccc1)C(=O)O)C(=O)N1CCC[C@H]1C(=O)O [lisinopril],effect of chronic background medication on functional sympatholysis / functional ischemia in DMD,[1],does not rescue functional sympatholysis
CCCCc1nc(Cl)c(CO)n1Cc1ccc(-c2ccccc2-c2nn[nH]n2)cc1 [losartan],effect of chronic background medication on functional sympatholysis / functional ischemia in DMD,[1],does not rescue functional sympatholysis
